Results: publication PMC9906736, “Sodium-Dependent Neutral Amino Acid Transporter 2 Can Serve as a Tertiary Carrier for L-Type Amino Acid Transporter 1-Utilizing Prodrugs” (Molecular Pharmaceutics, 2023)
“Also recorded” adds a separate entry of the source.

Key:
LAT1 [1] = details: cited from earlier work; for IC50: ability to compete with natural LAT1-substrate L-Leu, read-out: IC50 (μM) of [^14C]-L-Leu Uptake; for LAT1 Properties (in words): merged cell over IC50, CLint and Kp columns
LAT1 [2] = tested on: LAT1; set-up: unit not given here; details: CLint = Vmax/Km; cited from earlier work
MCF-7 cells = experiment: Concentration-dependent cellular uptake into MCF-7 cells at various pH, with and without Na+; assay type: cell-based, human; details: for cellular uptake at pH 8.5 compared to pH 7.4 / cellular uptake at pH 8.5 in the absence of Na+ / cellular uptake at pH 5.5 compared to pH 7.4: 1–200 μM, 30 min; for cellular uptake at pH 8.5 in the absence of Na+: compared to presence of Na+; for Km: pH 8.5, read-out: Km(uM)@pH8.5
Protocol: MCF-7 human breast adenocarcinoma cells (HTB-22) were purchased from the American Type Culture Collection (ATCC, Manassas, VA, USA). MCF-7 cells were cultured in Dulbecco’s modified Eagle’s medium supplemented with L-glutamine (2.0 mM), heat-inactivated fetal bovine serum (10%), and penicillin (50 U/mL)–streptomycin (50 μg/mL) solution. MCF-7 cells (passages 8–25) were seeded at the density of 1 × 10^5 cells/well onto 24-well plates. The cells were used for the uptake experiments 1 day after seeding. All the studies were carried out as three biological replicates from the same cell passage.
For the following experiments, the MCF-7 cells were cultured, seeded, washed with HBSS, and preincubated as described above at the desired conditions (pH 5.5, 7.4, or 8.5, with and without Na^+). […] Subsequently, the cells were washed three times with ice-cold HBSS and lysed with 500 μL of 0.1 M NaOH (60 min). […] The cell-associated concentrations of each compound normalized to protein concentration were calculated from the standard curve that was prepared by spiking known concentrations of compounds to ACN including the selected internal standard (diclofenac to all studied compounds). The protein concentrations on each plate were determined as a mean of three samples by Bio-Rad Protein Assay based on the Bradford dye-binding method using BSA as a standard protein and measuring the absorbance (595 nm) by a multiplate reader (EnVision, PerkinElmer, Inc., Waltham, MA, USA).

SNATs [3] = experiment: Competitive cellular uptake in the presence of unselective SNAT ligand MeAIB in MCF-7 cells; assay type: cell-based, human; details: 100 μM compound, 100 μM MeAIB, pH 7.4 or 8.5, 30 min
Protocol: The competitive uptake in the presence of unselective SNAT ligand, MeAIB (100 μM),[31],[32] was carried out as described above with HBSS buffer at pH 7.4 or pH 8.5 containing 100 μM of the studied compound. The cells were preincubated with the inhibitors for 10 min, and the incubation mixture was removed before adding the studied compound and the inhibitor to the cells. The competitive uptake (30 min) with the inhibitor was then carried out as the normal uptake described above. The concentrations of studied compounds were analyzed by the LC–MS/MS method and calculated from the spiked standard curve and normalized with the protein concentrations.

[4] = brain accumulation; cited from earlier work
SNATs [5] = experiment: Functionality of SNATs in MCF-7 cells with [3H]-L-proline uptake; assay type: cell-based, human; details: for inhibition of the uptake of [^3H]-L-proline: MeAIB 100 μM
Protocol: After removal of the culture medium, MCF-7 cells were carefully washed with prewarmed HBSS (Hank’s balanced salt solution) containing 125.0 mM NaCl (or choline chloride in Na^+-free conditions), 4.8 mM KCl, 1.2 mM MgSO4, 1.2 mM KH2PO4, 1.3 mM CaCl2, 5.6 mM glucose, and 25.0 mM 4-(2-hydroxyethyl)piperazine-1-ethanesulfonic acid (HEPES) with pH adjusted to either 7.4 or 8.5 with 1 M NaOH (or KOH in sodium-free conditions). In the experiments at lower pH (4.5–6.5), 25.0 mM HEPES was replaced by 2-(N-morpholino)ethanesulfonic acid (MES), and pH was adjusted to 4.5, 5.5, and 6.5 by 1.0 M NaOH. Preincubation was done with 500 μL of prewarmed HBSS at 37 °C for 10 min before adding substrates (250 μL in HBSS) for the uptake experiments. The functionality of SNATs in MCF-7 cells was studied with a known SNAT substrate; the cells were incubated either with [^3H]-L-proline [1 μM (PerkinElmer, Waltham, MA, USA) in uptake buffer HBSS, 250 μL] at 37 °C for 1–60 min or with the uptake buffer (250 μL) consisting of 1–600 μM L-proline (containing 2 μCi [^3H]-L-proline) at 37 °C for 60 min.[38] After incubation, the uptake was stopped by adding 500 μL of ice-cold HBSS, and the cells were washed two times with ice-cold HBSS (2 × 500 μL). The cells were then lysed with 500 μL of 0.1 M NaOH (60 min), and the lysate was mixed with 3.5 mL of Emulsifier safe cocktail (Ultima Gold, PerkinElmer, Waltham, MA, USA). The radioactivity in the cells was measured by liquid scintillation counting (MicroBeta^2 counter, PerkinElmer Waltham, MA, USA). The concentrations of [^3H]-L-proline were calculated from the spiked standard curve at each pH and normalized with the protein concentrations. The SNAT-mediated uptake was confirmed by changing the pH of the uptake buffer in the absence of sodium ions and in the presence of unselective SNAT-ligand, MeAIB (100 μM).[31],[32]

SMILES: N[C@@H](Cc1cccc(C(=O)OCc2ccc(-c3ccc(-c4ccc5c(c4)COC5=O)s3)cc2)c1)C(=O)O [Compound 1]
- IC50 (LAT1 [1]): 1.54 ± 0.05 µM
- Intrinsic Clearance (CLint) of LAT1-mediated uptake (LAT1 [2]): 47.1
- cellular uptake at pH 8.5 compared to pH 7.4 (MCF-7 cells): much higher
- cellular uptake at pH 8.5 in the absence of Na+ (MCF-7 cells): decreased; also recorded: sodium-sensitive
- Vmax of cellular uptake (MCF-7 cells; pH 5.5): 29 nmol/min/mg protein
- Km (MCF-7 cells): 412 µM
- cellular uptake, times higher at pH 5.5 compared to pH 7.4 (MCF-7 cells; ratio of Vmax): 3.9 times
- cellular uptake, times higher at pH 8.5 compared to pH 7.4 (MCF-7 cells; ratio of Vmax): 9.3 times
- cellular uptake in the presence of MeAIB (SNATs [3]): decreased
- in vivo Kp values (AUCbrain/ AUCplasma) [4]: 0.043

SMILES: CC(C(=O)Nc1cccc(C[C@H](N)C(=O)O)c1)c1cccc(C(=O)c2ccccc2)c1 (some centres unmarked) [Compound 2]
- IC50 (LAT1 [1]): 0.54 ± 0.05 µM
- Intrinsic Clearance (CLint) of LAT1-mediated uptake (LAT1 [2]): 11.2
- cellular uptake at pH 5.5 compared to pH 7.4 (MCF-7 cells): did not affect
- cellular uptake at pH 8.5 compared to pH 7.4 (MCF-7 cells): did not affect
- cellular uptake at pH 8.5 in the absence of Na+ (MCF-7 cells): did not affect
- Km (MCF-7 cells): 291 µM
- cellular uptake in the presence of MeAIB (SNATs [3]): did not affect
- in vivo Kp values (AUCbrain/ AUCplasma) [4]: 0.045

SMILES: CC(C(=O)Nc1ccc(C[C@H](N)C(=O)O)cc1)c1cccc(C(=O)c2ccccc2)c1 (some centres unmarked) [Compound 3]
- IC50 (LAT1 [1]): 51.16 ± 0.1 µM
- Intrinsic Clearance (CLint) of LAT1-mediated uptake (LAT1 [2]): 8.3
- cellular uptake at pH 5.5 compared to pH 7.4 (MCF-7 cells): higher
- cellular uptake at pH 8.5 compared to pH 7.4 (MCF-7 cells): higher
- cellular uptake at pH 8.5 in the absence of Na+ (MCF-7 cells): increased
- Km (MCF-7 cells): 131 µM
- cellular uptake in the presence of MeAIB (SNATs [3]): decreased
- in vivo Kp values (AUCbrain/ AUCplasma) [4]: 0.050

SMILES: CC(C(=O)NCc1cccc(C[C@H](N)C(=O)O)c1)c1cccc(C(=O)c2ccccc2)c1 (some centres unmarked) [Compound 4]
- IC50 (LAT1 [1]): 0.12 ± 0.01 µM
- Intrinsic Clearance (CLint) of LAT1-mediated uptake (LAT1 [2]): 4.5
- cellular uptake at pH 8.5 compared to pH 7.4 (MCF-7 cells): much higher
- cellular uptake at pH 8.5 in the absence of Na+ (MCF-7 cells): sodium-sensitive
- Km (MCF-7 cells): 40 µM
- cellular uptake in the presence of MeAIB (SNATs [3]): decreased
- in vivo Kp values (AUCbrain/ AUCplasma) [4]: 0.017

SMILES: CC(C(=O)NCCCC[C@H](N)C(=O)O)c1cccc(C(=O)c2ccccc2)c1 (some centres unmarked) [Compound 5]
- IC50 (LAT1 [1]): 82.7 ± 1.45 µM
- Intrinsic Clearance (CLint) of LAT1-mediated uptake (LAT1 [2]): 1.3
- cellular uptake at pH 8.5 compared to pH 7.4 (MCF-7 cells): much higher
- cellular uptake at pH 8.5 in the absence of Na+ (MCF-7 cells): sodium-sensitive
- Km (MCF-7 cells): 102 µM
- cellular uptake in the presence of MeAIB (SNATs [3]): decreased
- in vivo Kp values (AUCbrain/ AUCplasma) [4]: 0.022

SMILES: CC(C(=O)NCC[C@H](N)C(=O)O)c1cccc(C(=O)c2ccccc2)c1 (some centres unmarked) [Compound 6]
- IC50 (LAT1 [1]): 89.1 ± 4.19 µM
- cellular uptake at pH 8.5 compared to pH 7.4 (MCF-7 cells): decreased
- Km (MCF-7 cells): 422 µM
- cellular uptake in the presence of MeAIB (SNATs [3]): decreased
- in vivo Kp values (AUCbrain/ AUCplasma) [4]: 0.317

SMILES: COc1cc(/C=C/C(=O)Nc2cccc(C[C@H](N)C(=O)O)c2)ccc1O [Compound 7]
- IC50 (LAT1 [1]): 1.1 ± 0.08 µM
- cellular uptake at pH 8.5 compared to pH 7.4 (MCF-7 cells): much higher
- cellular uptake at pH 8.5 in the absence of Na+ (MCF-7 cells): sodium-sensitive
- Km (MCF-7 cells): 184 µM
- cellular uptake in the presence of MeAIB (SNATs [3]): decreased
- in vivo Kp values (AUCbrain/ AUCplasma) [4]: 0.082

SMILES: COc1cc(/C=C/C(=O)NCc2cccc(C[C@H](N)C(=O)O)c2)ccc1O [Compound 8]
- IC50 (LAT1 [1]): 14.2 ± 0.91 µM
- Intrinsic Clearance (CLint) of LAT1-mediated uptake (LAT1 [2]): 0.3
- cellular uptake at pH 8.5 compared to pH 7.4 (MCF-7 cells): much higher
- cellular uptake at pH 8.5 in the absence of Na+ (MCF-7 cells): sodium-sensitive
- Km (MCF-7 cells): 225 µM
- cellular uptake in the presence of MeAIB (SNATs [3]): decreased
- in vivo Kp values (AUCbrain/ AUCplasma) [4]: 0.052

SMILES: N[C@@H](Cc1c[nH]c2ccccc12)C(=O)O [L-Trp, reference compound]
- IC50 (LAT1 [1]): 50.5 ± 2.63 µM
- Intrinsic Clearance (CLint) of LAT1-mediated uptake (LAT1 [2]): 146
- cellular uptake at pH 5.5 compared to pH 7.4 (MCF-7 cells): did not affect
- cellular uptake at pH 8.5 compared to pH 7.4 (MCF-7 cells): did not affect
- cellular uptake at pH 8.5 in the absence of Na+ (MCF-7 cells): did not affect
- cellular uptake in the presence of MeAIB (SNATs [3]): did not affect

SMILES: CNC(C)(C)C(=O)O [MeAIB, α-(methylamino)isobutyric acid]
- LAT1 Properties (in words) (LAT1 [1]): Not an LAT1 substrate
- inhibition of the uptake of [^3H]-L-proline (SNATs [5]; [^3H]-L-proline 25 μM): negligible
- inhibition of the uptake of [^3H]-L-proline (SNATs [5]; [^3H]-L-proline 50 and 100 μM): able to inhibit

SMILES: CCCN(CCC)S(=O)(=O)c1ccc(C(=O)O)cc1 [PRB, probenecid, reference compound]
- LAT1 Properties (in words) (LAT1 [1]): Not an LAT1 substrate
- cellular uptake at pH 5.5 compared to pH 7.4 (MCF-7 cells): increased
- cellular uptake at pH 8.5 compared to pH 7.4 (MCF-7 cells): decreased
- cellular uptake in the presence of MeAIB (SNATs [3]): did not affect

SMILES: N[C@@H](Cc1cc(I)c(Oc2cc(I)c(O)c(I)c2)c(I)c1)C(=O)O [T4, thyroxin, reference compound]
- IC50 (LAT1 [1]): 18 ± 1.41 µM
- Intrinsic Clearance (CLint) of LAT1-mediated uptake (LAT1 [2]): 5.5
- cellular uptake at pH 5.5 compared to pH 7.4 (MCF-7 cells): increased
- cellular uptake at pH 8.5 compared to pH 7.4 (MCF-7 cells): decreased
- cellular uptake in the presence of MeAIB (SNATs [3]): decreased

SMILES: O=C(O)[C@@H]1CCCN1 [[^3H]-L-proline]
- Km (SNATs [5]; MCF-7 cells, 10–600 μM, 60 min): 1470 ± 257 µM
- Vmax of [^3H]-L-proline uptake (SNATs [5]; MCF-7 cells, 10–600 μM, 60 min): 1.13 ± 0.15 nmol/min/mg protein
- pH dependency of uptake (SNATs [5]; MCF-7 cells, pH 4.5–8.5 in the presence of Na+): significant pH dependency
- uptake in the absence of sodium (SNATs [5]; MCF-7 cells, pH 7.4): significantly reduced
